Assay [1] deals with T1, urease (jack bean) (Canavalia ensiformis, UniProt P07374). As to the kind of experiment: indophenol urease assay (ammonia production, […] nm). The assay is classed as biochemical.
Assay [2] addresses T1, urease (jack bean). Description: indophenol urease assay (ammonia production, […] nm), standard inhibitor. The assay is classed as biochemical. The settings on record: read-out: IC50 ± SEM (μg/mL) (converted).

T1 sequence (P07374 whole entry, looked up): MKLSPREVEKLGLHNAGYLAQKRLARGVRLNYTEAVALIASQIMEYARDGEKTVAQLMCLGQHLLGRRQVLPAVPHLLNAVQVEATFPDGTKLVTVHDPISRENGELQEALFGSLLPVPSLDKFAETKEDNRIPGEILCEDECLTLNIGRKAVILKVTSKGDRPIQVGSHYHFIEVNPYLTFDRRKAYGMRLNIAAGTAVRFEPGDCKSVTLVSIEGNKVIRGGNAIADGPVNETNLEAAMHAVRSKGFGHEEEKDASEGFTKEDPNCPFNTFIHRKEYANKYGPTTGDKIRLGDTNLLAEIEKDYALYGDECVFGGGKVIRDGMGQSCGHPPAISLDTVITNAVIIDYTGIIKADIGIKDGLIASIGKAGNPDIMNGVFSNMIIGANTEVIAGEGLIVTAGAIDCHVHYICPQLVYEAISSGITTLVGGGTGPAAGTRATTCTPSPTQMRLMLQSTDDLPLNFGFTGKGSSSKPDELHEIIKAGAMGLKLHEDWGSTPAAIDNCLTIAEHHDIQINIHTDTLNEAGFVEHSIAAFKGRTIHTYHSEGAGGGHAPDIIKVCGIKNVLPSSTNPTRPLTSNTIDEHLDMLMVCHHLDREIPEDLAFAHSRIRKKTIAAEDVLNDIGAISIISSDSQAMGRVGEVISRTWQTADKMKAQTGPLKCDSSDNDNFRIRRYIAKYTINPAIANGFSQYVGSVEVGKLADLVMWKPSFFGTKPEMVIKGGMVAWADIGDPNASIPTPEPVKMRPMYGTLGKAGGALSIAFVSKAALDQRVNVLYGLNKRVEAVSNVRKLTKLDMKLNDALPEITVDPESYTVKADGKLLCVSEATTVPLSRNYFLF

On to `COc1cc2c3cc1Oc1c(OC)c(OC)cc4c1[C@H](Cc1ccc(cc1)Oc1cc(ccc1O)C[C@H]3N(C)CC2)N(C)CC4` [compound 1, oxyacanthine], for which the IC50 on urease (jack bean) [1] is 10.4 µM.

As for `COc1ccc2cc1Oc1ccc(cc1)C[C@H]1c3cc(c(OC)cc3CCN1C)Oc1c(OC)c(OC)cc3c1[C@H](C2)N(C)CC3` [compound 2, tetrandrine], the IC50 at urease (jack bean) [1] (read-out: IC50 ± SEM (μg/mL) (converted)) was 8.85 µM.

As to `NC(N)=S` [thiourea], the IC50 on urease (jack bean) [2] was 215 µM.

For the origin of these results see paper PMC5977019, “NMR, Novel Pharmacological and In Silico Docking Studies of Oxyacanthine and Tetrandrine: Bisbenzylisoquinoline Alkaloids Isolated from Berberis glaucocarpa Roots” (Journal of Analytical Methods in Chemistry, 2018).
